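Following 48 hours of exposure in 96-well plates, responses at five concentrations were used to interpolate endpoints linearly. At the GI50, growth is halved.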 Active and inactive are the calls of the source. Rule as the data show it: active = GI50 up to about 1.1 µM and inactive = higher.
Legend:
Test in all cases: NCI tumour cell line growth inhibition, 48 h
[1] = test system: SK-MEL-5
[2] = test system: Malme-3M
[3] = test system: KM12
[4] = test system: M14
[5] = test system: HT-29
[6] = test system: SK-MEL-2
[7] = test system: SN12C
[8] = test system: OVCAR-5
[9] = test system: EKVX
[10] = test system: SW-620
[11] = test system: NCI-H460
[12] = test system: OVCAR-8
[13] = test system: OVCAR-3
[14] = test system: UACC-257
[15] = test system: CAKI-1
[16] = test system: SNB-19
[17] = test system: U-251
[18] = test system: A498
[19] = test system: IGROV-1
[20] = test system: HCC 2998

Measured: GI50

NS(=O)(=O)c1ccc(/N=N/c2ncccc2O)cc1
inactive: [1] > 100 µM | [2] > 100 µM | [3] 60.5 µM | [4] > 100 µM | [5] > 100 µM | [6] > 100 µM | [7] 71.8 µM | [8] > 100 µM | [9] > 100 µM | [10] 57.3 µM | [11] 69.3 µM | [12] 79.6 µM | [13] 33.7 µM | [14] > 100 µM | [15] > 100 µM | [16] > 100 µM | [17] > 100 µM | [18] > 100 µM | [19] > 100 µM

C=CCNS(=O)(=O)c1ncnc2[nH]cnc12
inactive: [1] > 100 µM | [2] > 100 µM | [3] > 100 µM | [4] > 100 µM | [5] > 100 µM | [6] > 100 µM | [7] 55.6 µM | [8] > 100 µM | [9] > 100 µM | [10] > 100 µM | [12] > 100 µM | [13] > 100 µM | [14] > 100 µM | [15] 26.2 µM | [16] > 100 µM | [17] > 100 µM | [18] > 100 µM | [19] > 100 µM

Cc1nc(O)c(Cc2ccccc2O)c(-c2ccccc2)n1
inactive: [1] > 100 µM | [2] > 100 µM | [3] > 100 µM | [4] > 100 µM | [5] 87.5 µM | [6] > 100 µM | [7] > 100 µM | [8] > 100 µM | [9] 19.1 µM | [10] > 100 µM | [11] > 100 µM | [12] > 100 µM | [13] > 100 µM | [14] > 100 µM | [15] > 100 µM | [16] > 100 µM | [17] > 100 µM | [18] > 100 µM | [19] > 100 µM

CN1CCN(CCCN2c3ccccc3Sc3ccc(C(F)(F)F)cc32)CC1
inactive: [1] 3.09 µM | [2] 2.69 µM | [3] 5.14 µM | [4] 1.88 µM | [5] 2.44 µM | [6] 7.93 µM | [7] 12.2 µM | [8] 10.1 µM | [9] 14.5 µM | [11] 3.86 µM | [12] 15.9 µM | [14] 2.6 µM | [15] 10.9 µM | [16] 15.2 µM | [17] 8.34 µM | [18] 13.6 µM

COC1(OC)c2ccccc2C2(O)c3ccccc3C(=O)C12 (stereo unspecified)
inactive: [1] 9.16 µM | [2] 38 µM | [3] 39.9 µM | [4] 23.9 µM | [5] 55.5 µM | [6] 38.1 µM | [7] 60.8 µM | [20] 57.1 µM | [8] > 100 µM | [9] 48.8 µM | [10] 71 µM | [11] 26.4 µM | [12] 39.4 µM | [13] 28.8 µM | [14] 17.9 µM | [16] 74.5 µM | [17] 43 µM | [19] 18.2 µM

O=C(Nc1ccccc1)c1ccc(Cl)c([N+](=O)[O-])c1
inactive: [1] 5.82 µM | [2] 20.5 µM | [3] 3.09 µM | [4] 10.2 µM | [5] 13.4 µM | [6] 13.2 µM | [7] 5.21 µM | [9] 28.4 µM | [10] 4.85 µM | [11] 6.31 µM | [12] 9.33 µM | [13] 19.1 µM | [14] 15.4 µM | [15] 6.05 µM | [16] 15.5 µM | [17] 19.5 µM | [18] 21.8 µM | [19] 14.8 µM

COC(=O)c1nsc(OC)c1Cl
inactive: [1] > 100 µM | [2] > 100 µM | [3] > 100 µM | [4] > 100 µM | [5] > 100 µM | [7] > 100 µM | [20] > 100 µM | [8] > 100 µM | [9] > 100 µM | [10] > 100 µM | [12] > 100 µM | [13] > 100 µM | [14] > 100 µM | [15] > 100 µM | [16] > 100 µM | [17] > 100 µM | [19] > 100 µM

CNS(=O)(=O)NNS(=O)(=O)c1ccc(F)cc1
inactive: [1] > 100 µM | [3] > 100 µM | [4] > 100 µM | [5] > 100 µM | [6] > 100 µM | [9] > 100 µM | [10] > 100 µM | [11] 59.3 µM | [12] > 100 µM | [13] > 100 µM | [14] > 100 µM | [15] > 100 µM | [16] > 100 µM | [17] > 100 µM | [18] > 100 µM | [19] > 100 µM

Source: ChEMBL document CHEMBL1201862, “PubChem BioAssay data set” (2004)
